The source of these data is patent US20220105188A1, “TARGET PROTEIN EED DEGRADATION-INDUCING DEGRADUCER, PREPARATION METHOD THEREOF, AND PHARMACEUTICAL COMPOSITION FOR PREVENTING OR TREATING DISEASES RELATED TO EED, EZH2, OR PRC2, COMPRISING SAME AS ACTIVE INGREDIENT” (KOREA RESEARCH INSTITUTE OF CHEMICAL TECHNOLOGY, priority 2019, published 2022).

Structures are written as SMILES.

T1 sequence (O75530 whole entry): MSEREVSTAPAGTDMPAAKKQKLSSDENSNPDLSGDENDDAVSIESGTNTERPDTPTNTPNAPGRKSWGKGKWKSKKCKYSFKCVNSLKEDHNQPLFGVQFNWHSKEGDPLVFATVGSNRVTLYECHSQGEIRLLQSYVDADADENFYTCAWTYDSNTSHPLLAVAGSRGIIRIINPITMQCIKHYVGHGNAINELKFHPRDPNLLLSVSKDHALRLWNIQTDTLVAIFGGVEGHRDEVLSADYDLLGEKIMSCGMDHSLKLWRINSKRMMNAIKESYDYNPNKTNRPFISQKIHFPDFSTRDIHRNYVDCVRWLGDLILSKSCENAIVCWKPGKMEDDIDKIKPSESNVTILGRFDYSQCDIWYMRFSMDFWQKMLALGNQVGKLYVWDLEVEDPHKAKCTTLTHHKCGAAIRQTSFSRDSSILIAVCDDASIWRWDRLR

This experiment has as its target T1, EED (Homo sapiens, UniProt O75530).
T1 construct: 2×10^5 Hela cells were injected into a 12-well plate; endogenous in cells; host or cells: HeLa
The experiment can be described thus: EED Proteolytic Activity Evaluation 2 (western blot, Hela cells). In kind it is cell-based. The settings on record: 1 nM, 10 nM, 100 nM and 1000 nM, 20 hours of treatment. As for the experimental part: [Experiment 2] EED Proteolytic Activity Evaluation 2
In order to evaluate the EED proteolytic activity of the compound according to the present invention, an experiment was conducted as follows.
Specifically, 2×10^5 Hela cells were injected into a 12-well plate, and after 8 hours of stabilization, each well was treated with the example compounds to have final concentrations of 1 nM, 10 nM, 100 nM, and 1000 nM. One well was treated with the volume of DMSO contained in the sample corresponding to the highest concentration in the experimental group. After 20 hours of treatment, the cells were collected and lysed using 80 μl of SDS Lysis buffer (50 mM Tris pH8.0, 1% SDS, 1 mM EDTA, 0.5 mM PMSF, and protease inhibitor cocktail) and then sonication (30 sec on/59 sec off), 5 cycles) to prepare a cell lysate, followed by protein quantification through BCA, followed by Western blot, and the results are shown in Table 3. (Maximum EED degradation rate: A: >50%, B: 25-50%, C: <25%)
For orientation: Immunoblotting shows a protein as a band on a membrane.
As to `O=C(CNc1ccc2c(c1)C(=O)N(C1CCC(=O)NC1=O)C2=O)NCCOCCOCCN1CCC(n2cc(-c3cnc(NCc4ccco4)n4cnnc34)cn2)CC1` (stereo not drawn) [Example 129, 2-((2-(2,6-dioxopiperidin-3-yl)-1,3-dioxoisoindolin-5-yl)amino)-N-(2-(2-(2-(4-(4-(5-((furan-2-ylmethyl)amino)-[1,2,4]triazolo[4,3-c]pyrimidin-8-yl)-1H-pyrazol-1-yl)piperidin-1-yl)ethoxy)ethoxy)ethyl)acetamide], the “EED degradation rate (Maximum EED degradation rate)” value was “C (C: <25%)”.

As to `Cc1cccc(F)c1CN1C[C@H](c2ccc(N3CCN(C(=O)CCCCCCCNc4ccc5c(c4)C(=O)N(C4CCC(=O)NC4=O)C5=O)CC3)cc2)[C@@H](N(C)C)C1` (stereo partly drawn) [Example 126, 5-((8-(4-(4-((3S,4R)-4-(dimethylamino)-1-(2-fluoro-6-methylbenzyl)pyrrolidin-3-yl)phenyl)piperazin-1-yl)-8-oxooctyl)amino)-2-(2,6-dioxopiperidin-3-yl)isoindolin-1,3-dione], the “EED degradation rate (Maximum EED degradation rate)” value was “B (B: 25-50%)”. The same measure for `Cc1cccc(F)c1CN1C[C@H](c2ccc(N3CCN(CCC4CCN(C(=O)CNc5ccc6c(c5)C(=O)N(C5CCC(=O)NC5=O)C6=O)CC4)CC3)cc2)[C@@H](N(C)C)C1` (stereo partly drawn) [Example 136, 5-((2-(4-(2-(4-(4-((3S,4R)-4-(dimethylamino)-1-(2-fluoro-6-methylbenzyl)pyrrolidin-3-yl)phenyl)piperazin-1-yl)ethyl)piperidin-1-yl)-2-oxoethyl)amino)-2-(2,6-dioxopiperidin-3-yl)isoindolin-1,3-dione]: “A (A: >50%)”.
